According to patent EP4817594A1, “SKIN CONDITION IMPROVEMENT COMPOSITION COMPRISING GLUTATHIONE-CONTAINING EXOSOME-LIKE VESICLES” (Cosmax, Inc., priority 2023, dated 2025):
Read-outs that look alike come from different tables or passages of the source.

Experimental: At this time, reduced glutathione was used as a standard.
Each of the diluted standard, the sample of Comparative Example 1 diluted in tertiary distilled water, the sample of Example diluted in tertiary distilled water, and the sample of Comparative Example 2 diluted in tertiary distilled water was filtered through a 0.2 µm-syringe filter, and the filtrate was put into a vial for HPLC. 10 ul was injected into a C18 column, and the samples were eluted at a flow rate of 1 ml/min, and the values were measured by using a DAD detector.

N[C@@H](CCC(=O)N[C@@H](CS)C(=O)NCC(=O)O)C(=O)O [Comparative Example 1, Glutathione]
Relative concentration of reduced glutathione (GSH) (Immediately after loading, 25 °C, light blocked): 1.00 | Relative concentration of reduced glutathione (GSH) (water, 4380 h): 0.21 | glutathione concentration compared to the initial concentration (water, 4380 h): about 20% | Relative concentration of reduced glutathione (GSH) (water, 8766 h): 0.06 | glutathione concentration compared to the initial concentration (water, 8766 h): about 6%
